Data taken from patent publication US20050198896A1, “Novel vegetal reinforcing agent based on phytohormones for use in the cultivation of plants or agriculture, preferably in the cultivation of fruit or in wine growing” (priority 2002, published 2005).

Assays:
sugar-beets = assay: sugar transport from the leaves into the beet body; format: in vivo; settings: about 2 to 3 weeks before harvest; same effect in potatoes, red beet and carrots
From the text: A further surprising inventive feature of the phytohormonal properties of ABA is the effect of promoting the protein and sugar transport in the plants from the leaves into the root(s). […] The same effect is observed in potatoes, red beet and carrots. The increase in sugar content leads to a substantial quality improvement of the harvested produce.

apples and pears = assay: leaf abortion in apples and pears; format: in vivo
From the text: This makes a further treatment with a fungicide unnecessary.

trees in fruit crops = assay: renewed burgeoning following rain after a prolonged period of dryness; format: in vivo, trees in fruit crops; potatoes; settings: also observed in potatoes
From the text: It has furthermore been observed that trees in fruit crops following rain after a prolonged period of dryness burgeon again. This has a negative influence on the quality of the fruit. […] This effect has also been observed in potatoes.

cherry crops = assay: bursting of cherries after rainfall, exogenous application of ABA before rainfall; format: in vivo; settings: variety Hedelfinger
From the text: In cherry crops it is an important problem that if it rains shortly before the harvest the cherries are capable of absorbing large quantities of water in their interior. This frequently causes them to burst so that they can no longer be utilized. Exogenous application of ABA in cherry crops before rainfall reduces the bursting of the variety Hedelfinger, for example, by up to 30%.

vine = assay: quality enhancement in wine growing with ABA; format: in vivo; settings: applied for several weeks prior to harvest
From the text: ABA can also be used for quality enhancement in wine growing. […] This leads to a higher density of the wine and thereby to wines with improved storage stability. Analogous effects occur in pears and apples.

chrysanthemums = assay: frost resistance, damaged flowers after frost; format: in vivo; settings: application about 24 hours prior to the frost
Description: Just as astonishing is the effect that exogenous application of ABA leads to frost resistance in crops, e.g. pears and apples, of adornment plants and fruit crops which has been observed. Application about 24 hours prior to the frost reduced the number of damaged flowers in chrysanthemums by 48%.

firs and spruces = assay: stress-susceptibility and needle retention of Christmas trees; format: in vivo
grapes = assay: GA3 in grapes compared to treatment with ethephon; format: in vivo
From the text: (§1) According to a further embodiment of the invention, GA3 and/or GA4/7 is/are used during the blooming period in the cultivation of […] grapes, table grapes or of grapes for special purposes, to enhance quality and as a protective measure against botrytis disease, in an application concentration of 5 to 100, preferably 5 to 50, especially 10 to 20 ppm, based on a quantity of water of 300 to 500, preferably 350 to 450 l/ha.

botrytis disease = assay: infestation of grapes with botrytis disease; format: in vivo; settings: loosening-up of the grapes (lengthening of the stalks)
From the text: as §1, with “l/ha. […] By contrast to conventional treatment with fungicides this happens purely mechanically/morphologically since the greater length of the stalks prevents mutual pushing away of the grapes, and damage to the grapes is thereby avoided. Such damage results in the occurrence of nest-shaped focuses of rot.” for “l/ha.”

| SMILES | transport of leaf sugar into the body of the beet (sugar-beets) | leaf abortion (apples and pears) | renewed burgeoning of the plants (trees in fruit crops) | reduction of the bursting of cherries (cherry crops) | increase in sugar content of the grapes (vine) | reduction of the size of the grapes (vine) | reduction of the number of damaged flowers (chrysanthemums) | needle retention (firs and spruces; compared with untreated trees) | stress-susceptibility (firs and spruces; firs and spruces harvested as Christmas trees) | density of the wine, colour and wine quality (grapes) | grape weight (grapes) | mean grape diameter (grapes) | infestation with botrytis disease (botrytis disease) |
| --- | --- | --- | --- | --- | --- | --- | --- | --- | --- | --- | --- | --- | --- |
| CC(C=C[C@@]1(O)C(C)=CC(=O)CC1(C)C)=CC(=O)O (stereo in doubt) [ABA, (S)-5-(1-hydroxy-2,6,6-trimethyl-4-oxo-2-cyclohexenyl)-3-methyl-cis/trans-2,4-pentadienoic acid] | the sugar present in the leaves is additionally transported into the body of the beet | quick leaf abortion | prevents renewed burgeoning of the plants | up to 30% | comparable increase in sugar content | up to 10% | 48% | keep their needles for much longer than untreated trees | reduction of stress-susceptibility | – | – | – | – |
| C=C1C[C@]23C[C@@]1(O)CC[C@H]2[C@@]12C=C[C@H](O)[C@@](C)(C(=O)O1)[C@H]2[C@@H]3C(=O)O [GA3, gibberellin A3] | – | – | – | – | – | – | – | – | – | improved | no reduction in grape weight is observed | larger | reduction in infestation with botrytis disease |
